Data from publication PMC9786170, “The Pharmacological Potential of Novel Melittin Variants from the Honeybee and Solitary Bees against Inflammation and Cancer” (Toxins, 2022).
Entries after “also recorded” stand apart in the source; their conditions may differ.

Key:
[1] = cited from earlier work
Text: Therefore, the identification of biologically active derivatives of melittins with minimal toxicity to healthy cells is important for developing new pharmacological treatment options. In this study, we applied a broad in vitro screening approach of melittin variants from the honeybee and earlier solitary bee lineages to assess whether these ...

[2] = tested on: IL-1β-activated rat knee joint cells; conditions: by inhibiting I-κB degradation and NF-κB migration into the nucleus; cited from earlier work
Text: (§1) LPS induces iNOS expression and the release of NO in RAW264.7 macrophages. […] Previously, Tang et al. reported that Melt prev ...

[3] = tested on: LPS-activated BV2 microglia; conditions: by blocking NF-κB translocation; cited from earlier work
Text: as §1

HEK293T cells = assay: Ca2+ induction assay (Fluo-8); format: cell-based, human; conditions: Fluo-8, 0.25, 2.5, 25 µg/mL, partly already at 2.5 µg/mL, n = 4
Procedure: Figure 2 Melittin derivates influence cellular Ca^2+ and IP1 levels. (A) For the Ca^2+ induction assay, Fluo-8 pretreated HEK293-T cells were incubated with melittin derivates in the indicated concentrations and the fluorescence was detected. (B) For the Ca^2+ inhibition assay, Fluo-8 pretreated HEK293-T cells were incubated with peptides in the indicated concentrations for 30 min, stimulated with 5 µM ionomycin, and the fluorescence was detected. (C) IP3 has a short lifetime and is rapidly degraded to IP1; therefore, IP1 was determined. For the IP1/IP3 induction assay (left panel), HEK293T cells were incubated with melittin peptides in the indicated concentration for 2 h, a detection reagent was added, and the fluorescence resonance energy transfer signal was detected. For the IP1/IP3 inhibition assay (right panel), HEK293T cells were incubated with melittin peptides in the indicated concentration for 30 min and stimulated with 20 µM ionomycin for 1.5 h. After the addition of the detection reagent, the fluorescence resonance energy transfer signal was detected. Data are expressed as mean ± SEM. (A, B, C (left)) n = 4, (C (right)) n = 3. * p ≤ 0.05 versus control.
For analysis, 5 × 10^4 HEK293 cells or 2 × 10^4 MDA-MB-231 cells were seeded in a 96-well poly-D-lysine plate, incubated at 37 °C for 24 h, and treated with 4 µM Fluo-8-AM in HBSS for 1 h at 37 °C. After 1 h, the Fluo-8/HBSS was replaced by 100 µL HBSS. Five images per second were taken using an ImageXpress Micro Confocal High Content Imaging System (Molecular Device, San Jose, CA, USA). Melittin peptides (0.25, 2.5, and 25 µg/mL), DMSO (negative control), or 5 µM ionomycin (Sigma Aldrich; Taufkirchen, Germany) (positive control) were added to the cells. For the next 20 s, an image was obtained every second. For the inhibition assay, the peptide-treated samples (30 min) were treated with 5 µM ionomycin and for the next 20 s, an image was obtained every second. The data were analyzed with the MetaXpress Software Version 6 (Molecular Devices, San Jose, CA, USA). A threshold of fluorescence intensity was defined using cells before treatment, and all cells with a fluorescence signal above the threshold level were counted. For the induction assay, the number of cells above the threshold in the toxin-treated samples were related to the cells in the DMSO-treated sample. For the inhibition assay, the number of cells above the threshold in the melittin-treated samples were related to the cells in the ionomycin-treated sample.

calmodulin = conditions: cited from earlier work
Text: These two systems are rarely independent but are often antagonistic, sometimes synergistic, or occasionally redundant. Ca^2+ is never elevated without a possible consequence—either positive or negative— ...

non-cancer cells = assay: Viability of non-cancer cells (RAW264.7, HEK293T, HMEC, HUVEC), overall statements; format: cell-based
Text: First, we studied the activity of the melittin peptides on the viability of non-cancer cells. The toxicity of all melittin variants was investigated in monocyte/macrophage-like cells (RAW264.7), human embryonic kidney 293 cells (HEK293T), human microvascular endothelial cells (HMEC), and primary human umbilical vein endothelial cells (HUVECs).
For assessing the cytotoxicity of all peptides, various cell types and assays were utilized. To determine the cell viability of HEK293T and RAW246.7 cells, the Orangu^TM assay (Cell Guidance Systems Ltd., Cambridge, UK) was used, as previously described. 2 × 10^5 HEK293T or 2 × 10^5 RAW246.7 were seeded in 96-well plates. […] After incubation, absorbance was measured at a wavelength of 450 nm with a reference at 650 nm at an EnSpire 2300 Multimode Plate Reader (Perkin Elmer, Lübeck, Germany). To calculate cell viability, the absorbance of vehicle-treated cells was set to 100%, and the melittin derivates-treated samples were correlated to them.
HMECs (2000 cells/well) were seeded into collagen-coated 96-well plates and grown for 24 h. […] Absorbance was measured at 590 nm using a plate reader (Infinite F200Pro, Tecan, Männedorf, Switzerland). The proliferation percentage was calculated by normalizing to the untreated control (24 h) and compared to the DMSO control (0.03%) of 72 h incubation. […]

Row | Substance | degradation in the blood [1] | NF-κB activation [2] | iNOS expression and NO synthesis [3] | induction of Ca2+ release (HEK293T cells) | inhibition of calmodulin function (calmodulin) | reduction of viability (non-cancer cells; Discussion, cell line not given) [%] | viability of non-cancer (healthy) cells (non-cancer cells; summary statement, Figure 6)
1 | melittin [Melt, reference compound] | fast degradation in the blood | prevents NF-κB activation | reduced LPS-activated BV2 microglia iNOS expression and NO synthesis | induced a significant release of Ca^2+; also recorded: induce Ca^2+ release | competitive inhibitor of the calmodulin function | 90 | 
2 | xylopin [Xac4] |  |  |  | induce Ca^2+ release |  |  | without harming healthy cells
